Data taken from ChEMBL document CHEMBL1121498, “Conformationally restricted phenothiazine neuroleptics. 1. 3-(Dimethylamino)-1,2,3,4-tetrahydroazepino[3,2,1-kl]phenothiazine” (J Med Chem, 1980).

Legend:
[1] = Compound was tested for inhibition of [3H]spiperone binding in membrane preparations obtained from calf caudate.; design: species or system Bos taurus
Rattus norvegicus [2] = species: Rattus norvegicus; test: Percentage increase in rat corpus striatal HVA synthesis; type: functional
Rattus norvegicus [3] = species: Rattus norvegicus; test: (§1) Compound was tested for inhibition of [3H]spiperone binding in membrane preparations obtained from rat corpus striatum.; type: functional
Dopamine receptor [4] = test: as §1
Rattus norvegicus [5] = test: Compound was evaluated for its ability to stimulate the synthesis of homovanillic acid (HVA) in rat in vivo; type: functional
Dopamine receptor [6] = target: Dopamine receptor (Bos taurus, UniProt Q95136+P20288)

IC50 (Dopamine receptor [4]) [nM]	IC50 (Dopamine receptor [6]) [nM]	Compound	IC50 [1] [nM]	Increase (Rattus norvegicus [2]) [%]	IC50 (Rattus norvegicus [3]) [nM]	ED50 (Rattus norvegicus [5]) [µmol/kg]
		CN(C)C1CCN2c3ccccc3Sc3cccc(c32)C1 (configuration not stated)	2400	24	2150	
1040	130	CN(C)CCCN1c2ccccc2Sc2ccccc21 [PROMAZINE]		250		200
